This is an account of results in patent US8828993B2, “Psychotropic agents having glutamate NMDA activity” (Ramot At Tel-Aviv University Ltd., priority 2006, dated 2014).

Series [1] deals with rats pretreated with MK-801. Description: Morris Water Maze in rats pretreated with MK-801. In kind it is in vivo. The conditions noted are these: rats pretreated with MK-801 0.15 mg/kg i.p. As for the experimental part:
(§1) The Morris Water Maze is a well known test aimed to assess spatial cognitive tasks (Anger, et al., Animal test systems to study behavioral dysfunctions of neurodegenerative disorders, Neurotoxicology, 12, 403-13 (1991)). The maze consists of a circular pool measuring 1.80 m in diameter 60 cm in height. The pool was filled with water (21±1° C.) to a depth of 30 cm. A circular hidden escape platform (10 cm in diameter) was placed just below the water surface. The test room contained several permanent extra maze cues such as the rat housing rack, laboratory table, posters on the walls, etc.
(§2) The Morris Water Maze is a well known test aimed to assess spatial cognitive tasks. The maze consists of a circular pool measuring 1.80 m in diameter 60 cm in height. The pool was filled with water (21±1° C.) to a depth of 30 cm. A circular hidden escape platform (10 cm in diameter) was placed just below the water surface. The test room contained several permanent extra maze cues such as the rat housing rack, laboratory table, posters on the walls, etc.
(§3) In the experiment rats were given Compound 1 orally on day 1 and the first test begun 90 minute later, six trials per day, for 3 consecutive days, to find the hidden platform (acquisition phase). The escape latency, i.e., the time required by the rat to find and climb onto the platform, was recorded for up to 120 sec. Each rat was allowed to remain on the platform for 30 sec, after which it was removed to its home cage.
(§4) A video camera was placed above the center of the pool for tracking the rat, and a video tracking system (Noldus) with online digital output directly fed data into a computer. Data were analyzed using EthoVision automated tracking system software (Noldus).
Compound 1 at both doses decreased the latency to the platform on day 3 of the experiment but not on days 1 and 2.
The relief of cognitive impairments was also shown in the use of Compound 6. […] Compound 6 at 10 mg/kg decreased the latency to the platform on days 2 and 3 of the experimentation.

In series [2] the test system is amphetamine-induced hyperactivity in mice. Description: Amphetamine-induced hyperactivity and stereotypic behavior. In kind it is in vivo. The conditions noted are these: ICR male mice. From the text: The amphetamine-induced hyperactivity and motility is one of the most popular animal models for schizophrenia (Pouzet B, et al., Effects of the 5-HT(7) receptor antagonist SB-258741 in animal models for schizophrenia. Pharmacol Biochem Behav April; 71(4):655-665, 2002 and Geyer, et al., Animal behavior models of the mechanisms underlying antipsychotic atypicalicity, Progress in Neuro-Psychopharmacol & Biological Psychiatry, 27, 1071-79, 2003). Amphetamines are known to augment dopaminergic and noradrenergic neurotransmission by inducing catecholamine release and preventing catecholamine reuptake
The experiment was conducted with ICR male mice placed in individual barrels. […] The locomotor activity, number of rearings and head movements was recorded every 15 minutes for 2 h.
As stated above, the amphetamine-induced hyperactivity and motility is one of the most popular animal models for schizophrenia. The experiment was conducted with ICR male mice placed in individual barrels. Compound 1 (20 mg/kg) was administered p.o to the mice 1 hr prior to i.p. administration of amphetamine (2. mg/kg). The hyper-active behavior expressed by the number of climbings and rearings and the stereotypic behavior expressed by the number of head movements was recorded every 15 minutes over a period of 1 h.
The effect of Compound 3 (12.5, 25 and 50 mg/kg, i.p.) on amphetamine-induced hyperactivity in Balb/c mice was also examined. Animals (6 per group) were injected with Compound 3 (12.5, 25 and 50 mg/kg) and 30 minutes later received amphetamine (2 mg/kg ip). After 30 minutes, animals were exposed to an open field test for a period of 20 minutes.

The subject of series [3] is mice. As to the kind of experiment: Catalepsy bar test. In kind it is in vivo. The conditions noted are these: doses of up to 50 mg/kg i.p., scored 90 minutes later. The procedure:
Catalepsy in mice and rats serves as a behavioral model for the manifestation of the extrapyramidal adverse effects of neuroleptics (Worm, et al., Dopamine-like activities of an aminopyridazine derivative, CM 30366. A behavioral study, Naunyn-Schmeideberg's Arch Pharmacol, 334, 246-52, 1986).
Catalepsy in mice is evaluated using a bar test. The mice were placed in the middle of a steel rod situated between two platforms with their front paws resting on the bar. Animals were injected i.p. with a vehicle or Compound 1. Animals were scored 90 minutes later for the time it took each animal to reach the platform.

The subject of series [4] is mice. As to the kind of experiment: Forced swim test (FST). In kind it is in vivo. From the text:
This is one of the most widely used tools for screening antidepressant activity pre-clinically in acute treatment. The test was first described by Porsolt et al., (Behavioral despair in mice: a primary screening test for antidepressants. Arch. Int. Pharmacodyn. Ther. 229, pp. 327-336, 1977). The FST test is based on the observation that rats and mice develop an immobile posture when placed in an inescapable cylinder of water. This behavior is considered a behavioral despair as opposed to active form of coping with stressful conditions. The FST test is considered a good screening tool with good reliability and predictive validity.
Three parameters were defined in the evaluation of FST:
1. Immobility—defined in the traditional Porsolt test as when no additional activity is observed other than that required to keep the animal's head above water;
2. Swimming behavior—being the movement (usually horizontal) throughout the chamber that also includes crossing into another quadrant;
3. Climbing behavior—being defined as the upward-directed movements (vertical) of the forepaws along the side of the swim chamber.
The test in mice was conducted acutely (60-90 minutes post oral drug administration) and animals were dropped to the cylinder for 6 minutes and scoring was performed in the last 4 minutes after 2 minutes of adaptation.
Round glass cylinders, 18 cm in diameter and 20 cm deep were used. Water temperature was 24-28° C. Four parameters were taken: immobility, velocity, distance and strong mobility. The immobility in the animals was defined by activity lower than 10% movement of the center of gravity of the animal. Swimming was defined by the distance and the velocity of the animal, and climbing was related to strong mobility (movement of center of gravidance more than 30%).
Males Balb/c mice (Harlan Israel) were used. Animals were administered orally with Compound 1 (10 or 20 mg/kg) or with a vehicle.
Males ICR mice were used.

Series [5] deals with rats. Description: Morris Water Maze, spatial cognition. In kind it is in vivo. The procedure:
as §1, §2, §3, §4

Series [6] relates to human glioma U83 cell. Conditions: 24 h. As for the experimental part:
Determination of cell viability was performed in cells (10,000/well) using neutral red method. Absorption of neutral red by lysosomes caused coloring of living cells. Quantitative analysis was performed by colorimetric assay (ELISA reader at 550 nm).

The mark [7] stands for this setting: male Balb/c mice, 10 mg/kg oral, vs vehicle.

Where a name gives a salt, the structure may show the parent alone. Where only a bound is given, the exact number is not on record here.

Turning to `CNC(CN1CCN(C2=Nc3ccccc3Nc3sc(C)cc32)CC1)C(=O)OC` (centres unmarked) [Compound 6, 2-N-methylamino-3-[4-(2-methyl-10H-thieno[2,3-b][1.5]benzodiazepin-4-yl)-piperazin-1-yl]propionic acid, methyl ester trihydrochloride salt], the “latency to the platform” value in series [1] (10 mg/kg p.o. once on day 1, days 2 and 3) is reported as “decreased”.
Consider `COC(=O)C(N)CN1CCN(C2=Nc3ccccc3Nc3sc(C)cc32)CC1` (centres unmarked) [Compound 1, 2-amino-3-[4-(2-methyl-10H-thieno[2,3-b][1,5]benzodiazepin-4-yl)-piperazin-1-yl]-propionic acid, methyl ester hydrochloride salt], for which the “rearing behavior, compound alone compared to control animals” value in series [2] (20 mg/kg p.o.) was “increased”. In addition, the “increase in head movements induced by amphetamine (stereotypic behavior)” value in series [2] (20 mg/kg p.o. 1 hr prior to amphetamine 2 mg/kg i.p.) is recorded as “did not attenuate”. The “hyperactivity induced by amphetamine (number of climbings and rearings)” value in series [2] (20 mg/kg p.o. 1 hr prior to amphetamine 2 mg/kg i.p., over 1 h) is “effective in antagonizing”. In series [3], the catalepsy entry is “did not induce catalepsy”. For the same compound, in series [4] (setting [7]), the “distance moved (swimming behavior)” value is listed as “significantly increased” and the “strong mobility (climbing behavior)” value is recorded as “significantly increased”. The immobility result in series [4] (male Balb/c mice, 20 mg/kg oral, vs vehicle) is on record as “decreased”. In series [4] (male ICR mice, 20 mg/kg oral), the distance moved entry is “did not modify”, the immobility result is on record as “significantly decreased”, the “strong mobility (climbing)” value was “significantly decreased” and the velocity result is reported as “did not modify”. Further, the “latency to platform (task execution)” value in series [5] (20 mg/kg po, second day) is “improvement”. The “latency to platform (learning of the spatial task)” value in series [5] (rats, 20 mg/kg po on day 1, first day) was “faster learning”. The latency to platform entry in series [5] (rats, 10 and 20 mg/kg po, third day, between all groups) is recorded as “no difference”. Also, the “latency to the platform” value in series [1] (10 and 20 mg/kg p.o. on day 1, day 3) was “decreased”. Also, the “concentration toxic to human glioma cells (not toxic up to)” value in series [6] was above 100 µM.
